Where two headings read alike, the source gives them in different places.
Tests used:
[1] = system: PC-3; experiment: Oxidative stress (H2DCFDA fluorescence), PC-3; type: cell-based; conditions: 1, 2 and 4 µM, 24 h, vs vehicle
Description: The compound 2′,7′-dichlorofluorescin (H2DCFDA) was used to detect changes in the oxidative stress status, as previously described in PC-3 and DU145. […] The cells were then washed 3 times with 1× PBS for 5 min each. The level of reactive oxygen species was then measured, based on the fluorescence level of oxidized H2DCFDA dye (excitation at 485 nm and emission at 535 nm), using an EVOS digital fluorescent microscope at 40×.

[2] = system: CHO; experiment: MTT cytotoxicity assay, CHO cells; type: cell-based; conditions: Cricetulus griseus, Chinese hamster ovarian cell line, means ± SDs of three independent experiments, read-out: IC50 ± SD, Non-Prostate Cells, CHO
Description: (§1) All the cells were cultured as adherent monolayers in culture flasks, and were used to determine the anti-cancer efficacy of RP-010. DMEM supplemented with 4.5 g of glucose, 10% fetal bovine serum (FBS) and 1% penicillin/streptomycin, was used to augment cell growth. Finally, the cells were incubated and grown in a humidified incubator containing 5% CO2 at 37 °C [50]. […] Cells were obtained from frozen stocks and cell passaging (up to P4) was performed at 80% cell confluency, using PBS and trypsin + 2.2-mM EDTA.
(§2) MTT assays were used to determine the cytotoxicity of the RP compounds, to PC cell lines, as previously described.

[3] = system: PC-3; experiment: MTT cytotoxicity assay, PC-3 prostate cancer cells; type: cell-based; conditions: MTT assay, means ± SDs of three independent experiments, read-out: IC50 ± SD, Prostate Cancer Cells, PC-3
Description: as §1, §2

[4] = system: DU145; experiment: DAPI staining of nuclear changes, DU145; type: cell-based
Description: The nuclear changes in DU145 and PC-3 cells lines produced by RP-010 (1, 2 and 4 µM) incubation at 24 or 48 h were determined using DAPI staining. The cells were seeded on culture cover glasses in 6-well plates, and allowed to grow overnight. The cells were then incubated with RP-010, for an additional 24 h, at 37 °C. The incubated cells were fixed with 4% paraformaldehyde, followed by permeabilization with 1× PBS/0.3% Triton X-100 for 25 min. Finally, DAPI stain was added, and cells were photographed using the EVOS microscope.

[5] = system: PC-3; experiment: Transwell migration assay, PC-3; type: cell-based; conditions: 24 h
Description: The assay was done as previously described. The effect of RP-010, (0.5, 1 or 2 µM) on the migration of PC cells was tested using 24 trans-well inserts with an […] pore size. The addition of the insert to the well forms two chambers (upper and lower), where the upper chamber was used to grow the cells on the porous membrane. The lower chamber was filled with 600-μL cell-free DMEM medium. 200-μL of the cell suspension was added to each insert, and cells allowed to attach for 1 h. The test compound was added in different concentrations and incubated with the cells for 24 h. […] Finally, the remaining migrated cells were fixed by methanol, and stained with 0.1% crystal violet dye and counted with an EVOS microscope. The number of migrated cells was counted for the cultures incubated with vehicle or RP-010.

[6] = system: DU145; experiment: MTT cytotoxicity assay, DU145 prostate cancer cells; type: cell-based; conditions: means ± SDs of three independent experiments, read-out: IC50 ± SD, Prostate Cancer Cells, DU145
Description: as §1, §2

[7] = system: DU145; experiment: Cell cycle analysis (PI, flow cytometry), DU145; type: cell-based; conditions: vs vehicle
Description: (§3) The effect of RP-010 on the cell cycle phases and function was determined using cell cycle analysis with PI staining, followed by flow cytometry. The cells were incubated with either vehicle or RP-010 (0.5, 1 or 2 µM) for 24 h. After incubation overnight, the cells were collected, washed and resuspended as an ice-cold PBS suspension. The DNA was stained with PI for at least 15 min on ice. A FACS Calibur flow cytometer from BD Biosciences (San Jose, CA, USA) was used to determine the distribution of the cells following incubation with vehicle or RP-010. Finally, the data were viewed and analysed using FlowJo v10.2 software from FlowJo LLC (Ashland, OR, USA).

[8] = system: HCT115; set-up: method as in PMID 28759878; conditions: colon cancer cell line; cited from earlier work
[9] = system: DU145; experiment: Wound healing assay, DU145; type: cell-based; conditions: 0.5, 1, 2 or 4 µM, 12-48 h, vs vehicle
Description: (§4) This assay was conducted using DU145 and PC-3 cells as previously described. Upon confluence, 200 μL sterile tips were used to create a wound by gently scratching the complete cell monolayer. Sterile PBS was used to wash the cells several times to remove any floating cells. Different concentrations of the test compound were prepared in the culture media and added immediately after wound formation. The closure of the wound was observed by taking pictures at different time points by the EVOS microscope (Thermo Fisher Scientific, Wayne, MI, USA). Finally, the area of the wounds, at different time points, was calculated using Image J software (NIH, Bethesda, MD, USA).

[10] = system: PC-3; experiment: Cell cycle analysis (PI, flow cytometry), PC-3; type: cell-based; conditions: 0.5, 1 or 2 µM
Description: as §3

[11] = system: PC-3; experiment: Wound healing assay, PC-3; type: cell-based; conditions: 0.5, 1, 2 or 4 µM, 12-24 h, vs vehicle
Description: as §4

[12] = system: DU145; experiment: Colony formation assay, DU145; type: cell-based; conditions: 1 or 2 µM, vs vehicle
Description: This assay was performed as previously described. The DU145 and PC-3 cells were incubated with RP-010 (1 or 2 µM) for 24 h. […], the medium was discarded and cells were trypsinized with 0.25% trypsin, 2.21-mM EDTA, and then harvested, counted, and reseeded in 6-well plates at a low density (500 cell/well). The cells were allowed to form colonies for 10–14 days at 37 °C, with the medium being changed every other day. Subsequently, methanol was used to fix the colonies formed in each plate, followed by staining the colonies with 0.1% crystal violet dye for 30 min. Finally, colonies were viewed and counted under an EVOS microscope (Themo Fisher Scientific, Wayne, MI, USA). The colony formation rate equation was applied for each compound: Colony formation rate = the number of colonies/numbers of seeded cells × 100%.

## COc1ccc(-c2nc3sc4c(c3c(=O)[nH]2)CCCC4)cc1 [RP10]
[1]
  Reactive oxygen species (ROS) level: elevated ROS levels
[2]
  IC50: 14 ± 1.3 µM
[3]; listed as RP-010
  IC50: < 1 µM
[3]
  IC50: 0.3 ± 0.1 µM
[4]; 1 µM, 24 h
  Nuclear morphology (DAPI): produced multinucleated cells
[4]; 1, 2 or 4 µM, 48 h
  Nuclear morphology (DAPI): primarily produced early stage apoptotic nuclear morphology
[4]; 2 or 4 µM, 24 h
  Nuclear morphology (DAPI): significantly increased numbers of highly condensed, fragmented nuclear chromatin
[5]; 0.5 μM
  Transwell migration: not significantly altered
[5]; 1 or 2 μM, p < 0.05
  Transwell migration: significantly decreased
[6]; Homo sapiens, DU-145, MTT assay
  IC50: < 1 µM
[6]; MTT assay
  IC50: 0.5 ± 0.2 µM
[7]; 0.5, 1 or 2 µM
  Cell cycle distribution, G1 phase: significant shift from G1 phase
[7]; 1 or 2 µM, p < 0.05
  Cell cycle distribution, G2 phase: significantly accumulated in the G2 phase
[8]
  IC50: 0.7 ± 0.2 µM
[9]
  Wound healing (cell migration): significant decrease
[10]
  Percentage of cells in G1: significant decrease
  Percentage of cells in the G2 phase: significant increase
[11]
  Wound healing (cell migration): significantly decreasing wound healing
[12]
  Size of the colonies: significantly decreased
[12]; p < 0.01
  Colony formation: significantly decreased
